In patent US5506102A (priority 1993, dated 1996):

Tests used:
[1] = tested on: human progesterone receptor isoform PR-B; experiment: PR-B transactivation of MMTV-LUC reporter, transient transfection; assay type: cell-based; conditions: 10^-7 M progesterone
Procedure: The cells were then incubated with either progesterone or an inert vehicle (ethanol (ETOH)). Western immunoblot analysis using two PR specific monoclonal antibodies (B30 and AB52, available from Dean Edwards, University of Colorado) confirmed that no hPR-A was synthesized from our PR-B constructs.

[2] = tested on: PR-B (co-expressed with PR-A587); experiment: Repression of PR-B mediated MMTV-LUC transcription by DNA binding mutant PR-A587, CV-1 cells; assay type: cell-based, human; conditions: equimolar phPR-A587 and phPR-B DNA, 10^-7 M progesterone, FIG. 9
Procedure: The relative luciferase activity is calculated by dividing the normalized luciferase value at a given point by that obtained in the absence of transfected receptor or ligand.
(§1) Cells were seeded in 12-well, 96-well or 10 cm tissue culture plates. […] 20 μg of DNA/ml of transfection buffer were used in each transfection reaction. In this mix, the concentration of the luciferase plasmids and that of the internal control plasmid pCH110 (Pharmacia, Inc.), which contains the gene for the β-galactosidase enzyme, remained constant ([…] of each plasmid DNA), while the receptor plasmid concentration varied as indicated for each experiment. Different amounts of receptor parental plasmid, pSV2-neo (Dr. Bert O'Malley, Baylor College of Medicine, Houston, Tex.) was included to keep constant the total amount of the SV40 enhancer vectors. pGEM4 plasmid DNA (Promega Biotech, Madison, Wis.) was added to balance the total DNA concentration to 20 g/reaction. For the 96-well plate experiments, transfections were performed on a Biomek 1000 Automated Laboratory Workstation (Beckman Instruments, Fullerton, Calif.).
Cells were seeded 24 hours prior to transfection in the fiat-bottom tissue culture plates ([…]) in phenol red-free DMEM containing 10% FCS. […]

[3] = tested on: glucocorticoid receptor (GR); experiment: GR transcriptional activity on MMTV-LUC, CV-1 cells, GR co-expressed with PR-A; assay type: cell-based; conditions: 1440 min
Procedure: as §1
(§2) Cells were seeded 24 hours prior to transfection in the fiat-bottom tissue culture plates ([…]) in phenol red-free DMEM containing 10% FCS. […] Using calcium phosphate co-precipitation, DNA solution was added dropwise with vortexing into an equal volume of 2X HBS pH 6.9 (280 mM NaCl. 50 mM HEPES, 1.5 mM Na2 HPO4) and precipitates were allowed to form for 20 minutes. Cells were transfected ( […] of DNA mix/well) for 6 hours and then washed with phosphate-bufferedsaline (PBS) to remove the precipitate. Cells were incubated for an additional 24 hours in phenol red-free medium containing 10% charcoal-treated FCS, with or without hormones as indicated in the text. Cell extracts were prepared as described by Berger et al., Supra, and assayed for luciferase and β-galactosidase activities. All determinations were performed in triplicates in at least two independent experiments, and were normalized for transfection efficiency by using β-galactosidase as an internal control.

[4] = tested on: PR-B (co-expressed with PR-A); experiment: PR-A repression of PR-B mediated MMTV-LUC transcription (co-transfection); assay type: cell-based, human; conditions: for transcriptional repression: HeLa, FIG. 3B
Procedure: FIGS 3A-3B are a series of graphs showing CV-1 (FIG. 3A) or HeLa (FIG. 3B) cells that were transiently transfected with either 0.25 g of phPR-A or 0.25 g phPR-B alone, or 0.25 g phPR-B in the presence of increasing concentration of phPR-A together with […] of the MMTV-LUC reporter and […] of pCH110 as an internal control. […] The relative luciferase activity is calculated by dividing the normalized luciferase value at a given point by that obtained in the absence of transfected receptor or ligand. Data shown indicate the mean +/- average deviation from the mean of triplicate estimations;
as §1, §2

[5] = molecular target: T1, human androgen receptor (Homo sapiens, UniProt P10275); experiment: AR transcriptional activity on MMTV-LUC, CV-1 cells, AR alone; assay type: cell-based; conditions: FIG. 10
T1 sequence (P10275 1-920): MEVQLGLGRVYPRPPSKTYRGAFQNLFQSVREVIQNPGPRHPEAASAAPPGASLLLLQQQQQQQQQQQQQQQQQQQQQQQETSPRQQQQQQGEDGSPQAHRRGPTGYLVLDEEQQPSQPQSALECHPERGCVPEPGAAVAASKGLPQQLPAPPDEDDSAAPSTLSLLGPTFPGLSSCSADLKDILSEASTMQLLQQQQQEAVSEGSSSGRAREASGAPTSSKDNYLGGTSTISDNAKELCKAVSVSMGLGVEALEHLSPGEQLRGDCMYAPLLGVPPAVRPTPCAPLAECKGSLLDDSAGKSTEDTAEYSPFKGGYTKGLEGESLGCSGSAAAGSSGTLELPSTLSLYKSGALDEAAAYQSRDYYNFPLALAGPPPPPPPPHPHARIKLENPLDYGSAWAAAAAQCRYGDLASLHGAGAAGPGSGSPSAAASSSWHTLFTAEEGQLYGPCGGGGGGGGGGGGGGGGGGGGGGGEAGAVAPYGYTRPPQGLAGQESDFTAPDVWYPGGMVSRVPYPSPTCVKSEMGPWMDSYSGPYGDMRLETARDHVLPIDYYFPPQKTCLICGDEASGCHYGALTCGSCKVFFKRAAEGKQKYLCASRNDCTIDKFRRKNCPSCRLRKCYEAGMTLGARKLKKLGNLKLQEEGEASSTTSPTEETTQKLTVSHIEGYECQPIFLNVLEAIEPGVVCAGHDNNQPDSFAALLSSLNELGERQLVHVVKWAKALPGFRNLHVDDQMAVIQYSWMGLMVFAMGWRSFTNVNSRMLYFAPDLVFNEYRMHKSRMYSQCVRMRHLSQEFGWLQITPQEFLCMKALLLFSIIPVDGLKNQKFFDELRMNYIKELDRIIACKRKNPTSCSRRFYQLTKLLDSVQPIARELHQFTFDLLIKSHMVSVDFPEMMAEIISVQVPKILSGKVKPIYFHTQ
Procedure: FIGS. 10A-10B are a series of graphs showing CV-1 cells that were transiently transfected with an expression vector for the human androgen receptor (pRShAR) alone, or in combination with phPR-A together with 5 µg/ml of the MMTV-LUC reporter and 5 µg/ml of pCH110 as an internal control. […] The relative luciferase activity is calculated by dividing the normalized luciferase value at a given point by that obtained in the absence of transfected receptor or ligand. […] The data are presented as percent (%) activation, where 100% represents the maximal induction achieved by human androgen receptor at 10^ -8 M DHT. The experimental data represents mean values +/- the average deviation from the mean of quadruplicate estimations;
Cells were seeded in 12-well, 96-well or 10 cm tissue culture plates. […] 20 μg of DNA/ml of transfection buffer were used in each transfection reaction. In this mix, the concentration of the luciferase plasmids and that of the internal control plasmid pCH110 (Pharmacia, Inc.), which contains the gene for the β-galactosidase enzyme, remained constant ([…] of each plasmid DNA), while the receptor plasmid concentration varied as indicated for each experiment. […]

[6] = tested on: ER; experiment: ER transcriptional activity on MMTV-ERE-LUC in HepG2 and HS578T cells; assay type: cell-based; conditions: data not shown
[7] = tested on: PR; conditions: cited from earlier work

Row | SMILES | progesterone mediated activation of the MMTV promoter ([1]; CV-1 cells, PR-B, FIG. 2A) | activation of the MMTV promoter by PR-B ([1]; HepG2 cells, FIG. 2C) | reduction of transcriptional activity of PR-B [2] [%] | reduction in GR activity ([3]; GR and PR-A, 10^-9 M progesterone, 5×10^-8 M dexamethasone, FIG. 6, 0.001 µM) [%] | GR activity, of induced control levels ([3]; presence of progesterone and dexamethasone, PR-A co-expressed, FIG. 5A, 0.1 µM) [%] | recovery of PR-B mediated transcription ([4]; CV-1, PR-A/PR-B DNA ratio 1:5) [%] | recovery of PR-B mediated transcription ([4]; CV-1, PR-A/PR-B DNA ratio 1:25) [%] | inhibition of MMTV-LUC transcriptional activity ([4]; CV-1, equimolar concentrations of PR-A and PR-B) | transcriptional repression ([4]; 1:1 PR-A/PR-B DNA ratio) [%] | transcriptional repression ([4]; 1:5 PR-A/PR-B DNA ratio) [%] | transcriptional repression ([4]; 1:25 PR-A/PR-B DNA ratio) [%] | effect of coexpression of PR-A and PR-B on MMTV transcription ([4]; HepG2, data not shown) | IC50 ([4]; read-out: progesterone concentration required for half maximal inhibition, CV-1, PR-A mediated repression of PR-B, MMTV) [nM] | effect on DHT-induced AR activity [5] | anti-estrogenic activity ([6]; HS578T cells) | anti-estrogenic activity ([6]; HepG2 cells) | effect on PR DNA binding [7]
1 | CC(=O)[C@H]1CC[C@H]2[C@@H]3CCC4=CC(=O)CC[C@]4(C)[C@H]3CC[C@]12C [progesterone] | permitted progesterone mediated activation of the MMTV promoter | both PR-A and PR-B functioned as efficient activators | […] | 50 | 2 | […] | […] | […] | […] | […] | […] | […] | […] |  |  |  | 
2 | CC#C[C@]1(O)CC[C@H]2[C@@H]3CCC4=CC(=O)CCC4=C3[C@@H](c3ccc(C(C)=O)cc3)C[C@@]21C [ZK112993] |  |  |  |  |  |  |  |  |  |  |  |  |  | efficient inhibitor of DHT-activated AR | both anti-progestins functioned as anti-estrogens | neither anti-progestin exhibited any anti-estrogenic activity | promotes the association of PR with DNA
